Assay results: article PMC9492542, “Brain-restricted mTOR inhibition with binary pharmacology” (Nature, 2022)
Values joined by “and” are separate entries in the source; they are usually repeats but may differ in a detail not shown here. Equal entries are not always repeated.

Columns and labels:
human PBMCs = experiment: IL-2 secretion of stimulated PBMCs (sandwich ELISA); type: cell-based; set-up: unit not given here
mTOR [1] = experiment: Immunoblot analysis of mTOR signalling (p-S6, p-4EBP1) in MCF7 cells, incl. screen for blocking of rapamycin/RapaLink-1
mTOR [2] = experiment: mTOR signalling in mouse whole brain and skeletal muscle after single i.p. dose (immunoblot, insulin stimulated); type: in vivo; details: for p-4EBP1 Brain, fold relative to no insulin, normalized to GAPDH / p-4EBP1 Muscle, fold relative to no insulin, normalized to GAPDH / p-RPS6 Brain, fold relative to no insulin, normalized to GAPDH / p-RPS6 Muscle, fold relative to no insulin, normalized to GAPDH: RL1 1 mg/kg, RB 40 mg/kg, insulin 250 mU, listed as RL1
Description: Whole brain and skeletal muscle were analyzed by immunoblot.

[3] = BALB/c nu/nu mice, RapaLink-1 1 mg per kg, RapaBlock 40 mg per kg, 4 h or 24 h

`CO[C@H]1C[C@@H]2CC[C@@H](C)[C@@](O)(O2)C(=O)C(=O)N2CCCC[C@H]2C(=O)O[C@H]([C@H](C)C[C@@H]2CC[C@@H](OCCOCc3cn(CCOCCOCCOCCOCCOCCOCCOCCOCCC(=O)NCCCCn4nc(-c5ccc6oc(N)nc6c5)c5c(N)ncnc54)nn3)[C@H](OC)C2)CC(=O)[C@H](C)/C=C(\C)[C@@H](O)[C@@H](OC)C(=O)[C@H](C)C[C@H](C)/C=C/C=C/C=C/1C` [RapaLink-1] was tested, and the IL-2 secretion (human PBMCs; 0.005081 nM RapaLink-1, +10 μM RapaBlock) was 4596.86 and 6574.88 and 5859.62, the IL-2 secretion (human PBMCs; 0.005081 nM RapaLink-1, No RapaBlock) was 6581.16 and 6332.27 and 5840.51 and the IL-2 secretion (human PBMCs; 0.015242 nM RapaLink-1, +10 μM RapaBlock) was 4621.98 and 5392.72 and 5694.48. The IL-2 secretion (human PBMCs; 0.015242 nM RapaLink-1, No RapaBlock) was 6342.48 and 6161.37 and 6860.66, the IL-2 secretion (human PBMCs; 0.045725 nM RapaLink-1, +10 μM RapaBlock) was 5493.48 and 5276.26 and 6056.43 and the IL-2 secretion (human PBMCs; 0.045725 nM RapaLink-1, No RapaBlock) was 6261.35 and 6059.04 and 6285.42. For the same compound, the IL-2 secretion (human PBMCs; 0.137174 nM RapaLink-1, +10 μM RapaBlock) was 4501.07 and 6329.65 and 6310.02, the IL-2 secretion (human PBMCs; 0.137174 nM RapaLink-1, No RapaBlock) was 6367.08 and 6367.6 and 6351.64 and the IL-2 secretion (human PBMCs; 0.411523 nM RapaLink-1, +10 μM RapaBlock) was 5797.33 and 5310.02 and 6522.53. For the same compound, the IL-2 secretion (human PBMCs; 0.411523 nM RapaLink-1, No RapaBlock) was 6337.77 and 6266.32 and 6532.48, the IL-2 secretion (human PBMCs; 1.23457 nM RapaLink-1, +10 μM RapaBlock) was 5361.84 and 6623.29 and 6201.15 and the IL-2 secretion (human PBMCs; 1.23457 nM RapaLink-1, No RapaBlock) was 2712.8 and 2327.56 and 3337.76. For the same compound, the IL-2 secretion (human PBMCs; 3.7037 nM RapaLink-1, +10 μM RapaBlock) was 5860.66 and 6735.83 and 6648.15, the IL-2 secretion (human PBMCs; 3.7037 nM RapaLink-1, No RapaBlock) was 362.628 and 408.689 and 558.388 and the IL-2 secretion (human PBMCs; 11.1111 nM RapaLink-1, +10 μM RapaBlock) was 4848.63 and 4895.73 and 6502.64. For the same compound, the IL-2 secretion (human PBMCs; 11.1111 nM RapaLink-1, No RapaBlock) was 251.4 and 437.215 and 324.156, the IL-2 secretion (human PBMCs; 33.3333 nM RapaLink-1, +10 μM RapaBlock) was 4350.33 and 5093.33 and 4877.15 and the IL-2 secretion (human PBMCs; 33.3333 nM RapaLink-1, No RapaBlock) was 275.478 and 292.227 and 264.486. The IL-2 secretion (human PBMCs; 100 nM RapaLink-1, +10 μM RapaBlock) was 2837.9 and 2542.68 and 2708.61, the IL-2 secretion (human PBMCs; 100 nM RapaLink-1, No RapaBlock) was 278.356 and 273.907 and 280.974 and the “phospho-S6 (S240/244) and phospho-4EBP (T37/46) levels” value (mTOR [1]; MCF7, 10 nM RapaLink-1) was “almost undetectable levels”. The “phospho-S6 (S240/244) and phospho-4EBP (T37/46) levels” value (mTOR [1]; MCF7, 10 nM RapaLink-1 + 10 µM FK506) was “showed no effect on either marker”, the “p-4EBP1 Brain, fold relative to no insulin, normalized to GAPDH” value (mTOR [2]; 4h) was 1.26 and 1.03 and 0.71 and the “p-4EBP1 Muscle, fold relative to no insulin, normalized to GAPDH” value (mTOR [2]; 4h) was 1 and 1.04 and 1.12. For the same compound, the “p-RPS6 Brain, fold relative to no insulin, normalized to GAPDH” value (mTOR [2]; 4h) was 1.23 and 1.15 and 1.11, the “p-RPS6 Muscle, fold relative to no insulin, normalized to GAPDH” value (mTOR [2]; 4h) was 0.9 and 1.3 and 1.14 and the “p-4EBP1 Brain, fold relative to no insulin, normalized to GAPDH” value (mTOR [2]; 24h) was 0.98 and 0.96 and 0.78. The “p-4EBP1 Muscle, fold relative to no insulin, normalized to GAPDH” value (mTOR [2]; 24h) was 1.18 and 1.08 and 1.1, the “p-RPS6 Brain, fold relative to no insulin, normalized to GAPDH” value (mTOR [2]; 24h) was 0.89 and 0.78 and 1.52 and the “p-RPS6 Muscle, fold relative to no insulin, normalized to GAPDH” value (mTOR [2]; 24h) was 1.11 and 1.39. For the same compound, the “mTOR activity in brain (p-S6, p-4EBP1)” value (mTOR [2]; [3]) was “potently inhibited mTOR signalling in both skeletal muscle and brain tissues” and the “mTOR activity in skeletal muscle (p-S6, p-4EBP1)” value (mTOR [2]; [3]) was “potently inhibited mTOR signalling in both skeletal muscle and brain tissues”.
